Data reported in patent publication US20100086931A1, “METHOD FOR ASSAYING ACTION OF ANTITUMOR AGENT USING DECREASE IN GENE EXPRESSION LEVEL AS INDEX” (Eisai R&D Management Co., Ltd., priority 2007, published 2010).

System: peripheral blood mononuclear cells (PBMC)
Assay: Microarray analysis (Human Genome U133 plus 2.0 array) of mRNA expression in PBMC treated with compound A
Format: cell-based
Conditions: 10 nM, ratio to control
Description: Since it is not easy to obtain a cancer tissue clinically, the measurement of the marker in hemocytes readily obtainable in peripheral blood would be more useful. Specifically blood was taken from a normal individual (volunteer) and peripheral blood mononuclear cells were purified and treated with compound A, followed by measurement of change in expression of the gene (mRNA) with the microarray (Human Genome […] plus 2.0 array: Affymetrix).
Ficoll-Paque PLUS solution (Amersham, 17-1440-02) was slowly added to the blood taken (with heparin added) from a healthy individual to form a layer underneath the blood (15 ml of Ficoll-Paque PLUS solution was added to 25 ml of blood). After the mixture was centrifuged at 1500 rpm for 30 min, the upper part containing platelets was removed and then a layer containing mononuclear cells was transferred to another tube. The cells were suspended in PBS and centrifuged at 1500 rpm for 5 min, followed by removal of the supernatant. After these steps were repeated twice, the cells were again suspended in RPMI1640 (containing 10% FBS). The number of the cells was then counted.
The cells were suspended in the medium to 5×10^6 cells/ml and plated 1 ml per well of a 24-well plate. Immediately, 111 μl of compound A (ten times more concentrated than the final concentrations) was added to the well (four wells per each concentration tested). The cells were then cultured in an incubator with 5% carbon dioxide gas at 37° C. Two or four hours later, the supernatant was collected and centrifuged at 1500 rpm for five minutes. TRI reagent (SIGMA) (1 ml) was added to each well of the plate from which the supernatant was removed to harvest the cells, which was added to the centrifuged pellet to dissolve. RNA was purified in accordance with the protocol of TRI reagent. RNA was further purified using RNeasy (QIAGEN). Absorbance at 260 nm was measured to quantify an amount of RNA.
A .cel file for each sample was obtained by using GeneChip Operating Software Ver.1.2 (Affymetrix). The RMA method was applied to ten of the .cel files obtained in the microarray experiment. Log signal intensity at a gene level was obtained by normalization of that at a probe level. By subtracting a control value from log signal intensity for each case, the log signal intensity was converted into a log signal ratio to the control. Genes were narrowed down in the basis of a log signal ratio, and a signal value. Specifically, among genes showing that the P value was 5% or less; the expression level in the untreated (control) is 100 or more by signal value; and the expression level when treated with 10 nM of compound A both for two and four hours decreased by 50% or more, genes of which expression level decreased to 25% or less upon the two-hour treatment were picked out. The software used is R2.2.1 (http://www.r-project.org/), affy package 1.8.1 (http://www.bioconductor.org).
Among genes showing, upon the treatment with compound A, that the P value was 5% or less; the expression level in the untreated (control) is 100 or more by signal value; and the expression level when treated with 10 nM of compound A both for two and four hours decreased by 50% or more, genes of which expression level decreased to 25% or less upon the two-hour treatment, and results thereof were shown in Table 2. For each gene evaluated, gene name (Gene Name), abbreviated name (Gene Symbol), accession number (Accession), alias name (Synonym), Probe set number in Human Genome U133 Plus 2.0 Array (Human Genome U133 Plus 2.0 Array Probeset ID), the expression level upon the two-hour treatment with E7107 (E7107 (2 h)), and the expression level upon the four-hour treatment with E7107 (E7107 (4 h)) were respectively shown in Table 2.

CCC(O)C(C)C1OC1CC(C)(O)/C=C/C=C(\C)C1OC(=O)CC(O)CCC(C)(O)C(OC(=O)N2CCN(C3CCCCCC3)CC2)/C=C/C1C (stereo not drawn) [E7107, (8E,12E,14E)-7-((4-Cycloheptylpiperazin-1-yl)carbonyl)oxy-3,6,16,21-tetrahydroxy-6,10,12,16,20-pentamethyl-18,19-epoxytricosa-8,12,14-trien-11-olide]
AHSA2 mRNA expression level (226665_at) (2 h): 0.21 | ATXN1 mRNA expression level (242230_at) (2 h): 0.25 | C13orf31 mRNA expression level (228937_at) (2 h): 0.19 | C15orf48 mRNA expression level (223484_at) (2 h): 0.06 | CCRL2//LOC642312 mRNA expression level (211434_s_at) (2 h): 0.22 | CLEC5A mRNA expression level (219890_at) (2 h): 0.08 | CSF2RA mRNA expression level (210340_s_at) (2 h): 0.10 | CTSL1 mRNA expression level (202087_s_at) (2 h): 0.21 | DHRS9 mRNA expression level (223952_x_at) (2 h): 0.25 | DOK3 mRNA expression level (223553_s_at) (2 h): 0.23 | FPRL2 mRNA expression level (230422_at) (2 h): 0.06 | GNA15 mRNA expression level (205349_at) (2 h): 0.22 | GPR84 mRNA expression level (223767_at) (2 h): 0.18 | GTF2H1 mRNA expression level (202451_at) (2 h): 0.18 | HNRPA2B1 mRNA expression level (225107_at) (2 h): 0.23 | HPSE mRNA expression level (222881_at) (2 h): 0.18 | IQCG mRNA expression level (235347_at) (2 h): 0.24 | LOC51315 mRNA expression level (233329_s_at) (2 h): 0.21 | MS4A7 mRNA expression level (224358_s_at) (2 h): 0.24 | NLRP12 mRNA expression level (1554952_s_at) (2 h): 0.23 | NRIP3 mRNA expression level (219557_s_at) (2 h): 0.07 | NSMCE4A mRNA expression level (228506_at) (2 h): 0.24 | OLR1 mRNA expression level (210004_at) (2 h): 0.05 | RAPH1 mRNA expression level (225188_at) (2 h): 0.19 | RBBP6 mRNA expression level (212781_at) (2 h): 0.23 | SLC25A19 mRNA expression level (223222_at) (2 h): 0.18 | SLC43A2 mRNA expression level (228918_at) (2 h): 0.17 | TNFAIP6 mRNA expression level (206026_s_at) (2 h): 0.19 | TNS1 mRNA expression level (221748_s_at) (2 h): 0.10 | TRAPPC4 mRNA expression level (217959_s_at) (2 h): 0.18 | Transcribed locus mRNA expression level (230098_at) (2 h): 0.22 | WSB1 mRNA expression level (201294_s_at) (2 h): 0.20 | ZCCHC6 mRNA expression level (220933_s_at) (2 h): 0.17 | AHSA2 mRNA expression level (226665_at) (4 h): 0.15 | ATXN1 mRNA expression level (242230_at) (4 h): 0.24 | C13orf31 mRNA expression level (228937_at) (4 h): 0.11 | C15orf48 mRNA expression level (223484_at) (4 h): 0.01 | CCRL2//LOC642312 mRNA expression level (211434_s_at) (4 h): 0.35 | CLEC5A mRNA expression level (219890_at) (4 h): 0.05 | CSF2RA mRNA expression level (210340_s_at) (4 h): 0.06 | CTSL1 mRNA expression level (202087_s_at) (4 h): 0.13 | DHRS9 mRNA expression level (223952_x_at) (4 h): 0.31 | DOK3 mRNA expression level (223553_s_at) (4 h): 0.26 | FPRL2 mRNA expression level (230422_at) (4 h): 0.04 | GNA15 mRNA expression level (205349_at) (4 h): 0.15 | GPR84 mRNA expression level (223767_at) (4 h): 0.20 | GTF2H1 mRNA expression level (202451_at) (4 h): 0.07 | HNRPA2B1 mRNA expression level (225107_at) (4 h): 0.20 | HPSE mRNA expression level (222881_at) (4 h): 0.29 | IQCG mRNA expression level (235347_at) (4 h): 0.23 | LOC51315 mRNA expression level (233329_s_at) (4 h): 0.13 | MS4A7 mRNA expression level (224358_s_at) (4 h): 0.04 | NLRP12 mRNA expression level (1554952_s_at) (4 h): 0.26 | NRIP3 mRNA expression level (219557_s_at) (4 h): 0.29 | NSMCE4A mRNA expression level (228506_at) (4 h): 0.18 | OLR1 mRNA expression level (210004_at) (4 h): 0.02 | RAPH1 mRNA expression level (225188_at) (4 h): 0.18 | RBBP6 mRNA expression level (212781_at) (4 h): 0.17 | SLC25A19 mRNA expression level (223222_at) (4 h): 0.20 | SLC43A2 mRNA expression level (228918_at) (4 h): 0.08 | TNFAIP6 mRNA expression level (206026_s_at) (4 h): 0.06 | TNS1 mRNA expression level (221748_s_at) (4 h): 0.09 | TRAPPC4 mRNA expression level (217959_s_at) (4 h): 0.07 | Transcribed locus mRNA expression level (230098_at) (4 h): 0.14 | WSB1 mRNA expression level (201294_s_at) (4 h): 0.17 | ZCCHC6 mRNA expression level (220933_s_at) (4 h): 0.08
